Results: patent US20220339135A1, “COMPOSITIONS AND METHODS FOR MODULATING AN INFLAMMATORY RESPONSE” (Enzychem Lifesciences Corporation, priority 2019, published 2022)
Entries after “also recorded” stand apart in the source; their conditions may differ.

How the values were obtained:
[1] = test system: LPS-induced acute lung injury; experiment: LPS-induced acute lung injury (ALI) in mice; type: in vivo; conditions: for number of neutrophils in BALF: LPS-treated mice, co-treatment
PAK in THP-1 cells = experiment: In vitro phagocytosis of PAK, THP-1 cells; type: cell-based, human; conditions: 1 hour after infection
Method: For CFU counting-based phagocytosis and bacterial killing assay, PAK was cultured at 37° C. overnight with continuous shaking and was resuspended in PBS. The BMDMs or THP-1 cells were incubated with PAK (MOI, 50) for different time intervals at 37° C. The cells were further cultured in the medium containing 10 μg/ml gentamycin for 30 minutes and then were lysed by 0.5% SDS. The diluted aliquots were spread on LB agar plates, and CFU was counted after incubation of the plates overnight at 37° C.

[2] = test system: Pseudomonas aeruginosa (PAK) in BALF; experiment: PAK infection of mice, CFU determination in BALF; type: in vivo; conditions: PAK-induced pneumonia mice, BALF 2 hours after infection
Method: Pseudomonas aeruginosa (PAK) was grown overnight in LB broth at 37° C. with agitation, and then harvested by centrifugation at 13,000×g for 2 min. The pellet was diluted to yield 1×10^5 colony-forming unit (CFU) per 20 μL of phosphate-buffered saline (PBS) as determined by the optical density at 600 nm. The diluted bacteria were administered to BALB/c mice by intranasal injections. Bronchoalveolar lavage fluid (BALF) samples were then collected 2 hours after infection and serially diluted 1:1,000-1:10,000 with PBS and incubated overnight at 37° C. on LB agar plates. The number of viable bacteria in BALF samples were determined by counting the numbers of colonies formed on the plates.

[3] = test system: STZ-induced hepatic steatosis; experiment: STZ-induced mice model (lipid uptake, hepatic steatosis); type: in vivo; conditions: for body weight versus STZ treated mice / hepatic steatosis / liver damage (histology): co-treated 3 days
Source text: Eight-week-old Balb/c male mice were purchased from Koatech Co. (Pyeongtaek, Republic of Korea) and maintained in for 7 days in order to adapt to the environment. The experimental protocol was approved by the Animal Care and Use Committee of Korea Research Institute of Bioscience and Biotechnology Institution (KRIBB-AEC-17146) and performed in accordance with the National Institutes of Health Guidelines for the care and use of laboratory animals and with the Korean national laws for animal welfare. The mice were randomized initially into two experimental groups as follows: Non-treated group as a control; STZ treated group. STZ treated groups received an intraperitoneal injection of 200 mg/kg BW STZ, which was dissolved in citrate buffer (pH 4.5), while the animals belonging to the control group received vehicle injection. The next day following STZ administration, the induction of diabetes in all STZ-treated mice was confirmed the glucose level in blood by a glucometer (ACCU-CHEK, Roche diagnostics Inc., Seoul, Korea). All mice with blood glucose levels higher than 200 mg/dL in fasting state were considered acute diabetes. After the confirmation of the induction of diabetes, the mice of the experimental group were further randomized into three groups: STZ alone treated group; high dose of PLAG treated group; a low dose of PLAG treated group. PLAG was injected into mice for 3 days. Control and STZ alone treated groups were administrated orally to mice with the same PBS for 3 days. Following sacrifice, LPL activity was measured in plasma using a quantitative LPL activity assay kit (Cell Biolabs, Inc, San Diego, Calif.). Diluted samples and standards were loaded to the fluorescence microtiter plate, and LPL fluorometric substrate was added. After 30 minutes, the reaction stopped by stopping the solution. After 15 minutes, the sample fluorescence measured by a fluorescence microplate reader. The relative amounts of Apolipoprotein B48 (ApoB48) of portal vein plasma were evaluated by western blot analysis. […] The protein extracts were immunoblotted with the ApoB48 antibody (Abcam, MA, USA). Eight-week-old Balb/c male mice were purchased from Koatech Co. (Pyeongtaek, Republic of Korea) and maintained in for 7 days in order to adapt to the environment. The experimental protocol was approved by the Animal Care and Use Committee of Korea Research Institute of Bioscience and Biotechnology Institution (KRIBB-AEC-17146) and performed in accordance with the National Institutes of Health Guidelines for the care and use of laboratory animals and with the Korean national laws for animal welfare. The mice were randomized initially into 2 experimental groups as follows: Non-treated group as a control; STZ treated group. STZ treated groups received an intraperitoneal injection of 200 mg/kg BW STZ, which was dissolved in citrate buffer (pH 4.5), while the animals belonging to the control group received vehicle injection. The next day following STZ administration, the induction of diabetes in all STZ-treated mice was confirmed the glucose level in blood by a glucometer (ACCU-CHEK, Roche diagnostics Inc., Seoul, Korea). All mice with blood glucose levels higher than 200 mg/dL in fasting state were considered acute diabetes. After the confirmation of the induction of diabetes, the mice of the experimental group were further randomized into three groups: STZ alone treated group; high dose of PLAG treated group; a low dose of PLAG treated group. One day after STZ injection, mice were orally injected with PLAG for 3 days (FIG. 31A). The dosage and preparation of PLAG were determined according to previous reports. Control and STZ alone treated groups were administrated orally with the same PBS for 3 days. The experiments were carried out according to the methods mentioned above. […] Total RNA was isolated from the muscle of individual mice using TRIzol reagent (Favorgen Biotech, Taiwan). […]

SMILES: CCCCC/C=C\C/C=C\CCCCCCCC(=O)OC(COC(C)=O)COC(=O)CCCCCCCCCCCCCCC (racemic) [PLAG, 1-palmitoyl-2-linoleoyl-3-acetylglycerol]
- inflammatory cell infiltration into the alveolar space (H&E) ([1]; 16 hours after LPS, PLAG 250 mg/kg oral): considerably reduced
- mRNA expression of MIP-2, S100A8, S100A9 increased by LPS ([1]; BALF cells, 16 hours): significantly attenuated
- Evans blue-stained albumin in lungs ([1]; LPS 25 mg/kg intranasal, PLAG 250 mg/kg oral): significantly decreased
- number of neutrophils in BALF [1]: more rapidly return to homeostasis; also recorded: dramatically reduced
- MPO activity of isolated lung tissue ([1]; vs LPS alone, PLAG 250 mg/kg oral): significantly decreased
- neutrophil migration, PLAG treatment alone ([1]; without LPS): no effect
- phagocytosis of PAK by THP-1 cells (PAK in THP-1 cells): advanced phagocytosis
- bacterial clearance of PAK in BALF [2]: showed the bacterial clearance activity; also recorded: effectively eliminated
- STZ-induced empty fat vacuoles in liver (H&E) ([3]; 250 mg/kg vs 50 mg/kg): decreased STZ-induced empty fat vacuoles more effectively than 50 mg/kg
- plasma LPL activity ([3]; STZ 200 mg/kg, PLAG 3 days): recovered
- muscle TG content ([3]; STZ/PLAG treated group): recovered
- body weight versus STZ treated mice [3]: less body weight loss
- hepatic steatosis / liver damage (histology) [3]: attenuated
- ApoB48 level in portal vein blood ([3]; dose-dependent): markedly reduced

SMILES: CCCCC/C=C\C/C=C\CCCCCCCC(=O)OC(CO)COC(=O)CCCCCCCCCCCCCCC (stereo not shown) [PLH, palmitic linoleic hydroxyl glycerol, reference compound]
- number of neutrophils in BALF [1]: no effect
- phagocytosis of PAK by THP-1 cells (PAK in THP-1 cells): little effect
- bacterial clearance of PAK in BALF [2]: didn't; also recorded: did not
- body weight versus STZ treated mice [3]: no difference
- hepatic steatosis / liver damage (histology) [3]: not altered
